The subject of the experiment is House Ear Institute-Organ of Corti 1 (HEI-OC1) auditory hair cell. The experiment can be described thus: Apoptosis inhibitory effect on auditory cell line treated with hydrogen peroxide (MTT analysis). The class given is cell-based, mice. As to conditions: Mus musculus, HEI-OC1, 100 μM hydrogen peroxide, read-out: EC50 (apoptosis inhibitory effect, hair cells). As for the experimental part: House Ear Institute-Organ of Corti 1 (HEI-OC1), an auditory hair cell derived from the Organ of Corti which is the auditory generation organ in mice, was cultured in an incubator at 33° C. in the presence of 10% CO2 using DMEM (high-glucose Dulbecco's Eagle's medium, Sigma-Aldrich Co., St. Louis, USA) culture including 10% fetal bovine serum (FBS; WELGENE Inc., Gyeongsangbuk-do, Korea) and 50 U/mL INF-γ (Peprotech Inc., Seoul, Korea) without addition of antibiotics. In order to generate reactive oxygen species (ROS) caused by oxidative stress that occurs in the process of inducing noise induced hearing loss, cell lines with noise induced hearing loss were established by treating hydrogen peroxide.

The source of these data is patent US20240173372A1 (IMDpharm Inc., priority 2021, published 2024).

In brackets after ≈: the same amount, converted by molar mass.

One may read the EC50 as the midpoint of the concentration-response curve. As for `COc1cccc(CCc2ccccc2OCC(CN(C)C)OC(=O)CCC(=O)O)c1` (single isomer, unassigned; (-)) [sarpogrelate, (−)-4-[1-dimethylamino-3-[2-[2-(3-methoxyphenyl)ethyl]phenoxy]propan-2-yl]oxy-4-oxobutanoic acid], the EC50 is 26.4 µg/mL (≈ 61.5 µM).
